Reference: patent publication US20230263826A1, “Compositions and Methods for Treatment and Prevention of Type 1 Diabetes” (The UAB Research Foundation, priority 2021, published 2023)

How the values were obtained:
female NOD mice [1] = assay: β cell mass and circulating insulin at sacrifice in FKGK18-treated NOD mice; assay type: in vivo, mouse; details: 8-week regimen group
Description: (§1) FIGS. 1A-1M show the effects of temporal FKGK18 regimen on T1D incidence and islet phenotype, wherein female NOD mice were administered FKGK18 (20 mg/kg, 3 × weekly) or vehicle (PBS-T) starting at 4 or 8 weeks of age. FIGS. 1A and 1B show diabetes incidence; blood glucose was monitored weekly in the 4-week (FIG. 1A; n = 17 and 15 for PBS-T and FKGK18 groups, respectively) and 8-week (FIG. 1B; n = 15 each in the PBS-T and FKGK18 groups) regimen groups for up to 30 weeks. Two consecutive readings of ≥ 275 mg/dL were recorded as onset of T1D (^†P < 0.05). FIGS. 1C-1F show glucose tolerance test (GTT) results, wherein overnight fasted mice were administered glucose (2 g/kg, i.p.), glucose levels in blood from tail vein were monitored over a 2-hour period, and AUC were generated. […] FIGS. 1H and 1I show β Cell mass (PBS-T, n = 15; FKGK18, n = 14) (FIG. 1H) and circulating insulin (n = 15 in each group) (FIG. 1I) were determined at sacrifice (PBS-T, 14-30 weeks of age; FKGK18, 16-36 weeks of age). FIGS. 1J and 1K show islet infiltration; paraffin sections (10 µm) of pancreas were prepared and stained with H&E. Percent infiltration for each islet was calculated as the value of noninfiltrated area subtracted from total islet area (% infiltrate = 100 × [(total area - noninfiltrated area)/(total area)]) using ImageJ software. […]

female NOD mice [2] = assay: Islet infiltration and islet immune cell phenotype (H&E, CD4+ T cell and B220 staining of pancreas sections); assay type: in vivo, mouse; details: 8-week regimen group
Description: as §1, with “generated. FIGS. 1C and 1D show four-week group at 14 weeks of age; n = 5 each in the PBS-T and FKGK18 groups. FIGS. 1E and 1F show eight-week group at 25 weeks of age; n = 7 and 5 for PBS-T and FKGK18 groups, respectively. FIGS. 1G-1I show phenotype parameters in the 8-week regimen group.” for “generated.”, “software. (PBS-T, n = 14 and 166 islets; FKGK18, n = 15 and 260 islets).” for “software.”
Blood glucose levels were measured weekly via tail vein blood draw (2 µL) with Breeze 2 Blood Glucose Monitoring System (Bayer HealthCare). Diabetes incidence was based on 2 consecutive blood glucose readings ≥ 275 mg/dL, at which time the mouse was euthanized. […] Pancreas section and islet images were captured on an Olympus IX81 microscope using cellSens Dimension software and analyzed using ImageJ software (NIH).

O=C(CCCCc1ccc2ccccc2c1)C(F)(F)F [FKGK18]
β cell mass vs PBS-T (female NOD mice [1]): similar | circulating insulin vs PBS-T (female NOD mice [1]; nonfasting): higher | pancreatic islet abundance of B cells relative to PBS-T (female NOD mice [2]): significantly reduced | pancreatic islet abundance of CD4+ T cells relative to PBS-T (female NOD mice [2]): significantly reduced | islet infiltration vs PBS-T (female NOD mice [2]; H&E pancreas sections): reduced
